Data on 8 compounds can be found in patent US4749712A, “Antiinflammatory and/or analgesic 5-alkylthiophenes” (E. I. Du Pont de Nemours and Company, priority 1984, dated 1988).

For experiment [1], the system named is adjuvant-induced arthritis in rats. Nature of the experiment: Established Adjuvant-Induced Arthritis in Rats. The class given is in vivo, rat (male Charles River Lewis). Particulars: for ED50: 24 h, read-out: Adjuvant Arthritis ED50 (effective dose for 50% decrease from control paw volume).
In experiment [2] the test system is phenylquinone writhing in mice. Nature of the experiment: Phenylquinone Writhing Test (analgesic activity). Type of experiment: in vivo, mouse (female white mice). The note with it: read-out: Phenylquinone Writhing (PQW) ED50 (effective analgesic dose for 50% of the mice). How it is done:
Phenylquinone Writhing Test
A test compound suspended in 1% methylcellulose was given orally to fasted (17-21 hours) female white mice, 5-20 animals per double blind test. Aqueous (0.01% phenyl-p-benzoquinone) phenylquinone, 0.20 ml per mouse, was injected intraperitoneally 6 minutes before observations were begun.
(An intraperitoneal irritant provokes the stretching counted in writhing tests.)

The mark [3] stands for this setting: rat, oral gavage, 7 daily doses, paw volume one day after last dose.
[4] abbreviates: mouse, oral, phenylquinone i.p. 6 minutes before 10 minutes observation.

Like-named read-outs stand apart in the source and are kept apart here.

A word on the ED50: it is the midpoint of the dose-response relation.

For the compound `CC(=O)Oc1ccccc1C(=O)O` [Aspirin, reference compound], the ED50 in experiment [1] (Rattus norvegicus, po) was found to be 305 mg/kg.

Consider `COc1ccc(-c2cc(C)sc2-c2ccc(OC)cc2)cc1` [Example 1, 5-Methyl-2,3-bis(4-methoxyphenyl)thiophene], for which the ED50 in experiment [1] (setting [3]) turned out to be 60 mg/kg; in experiment [2] (setting [4]) it was 78 mg/kg.

For `CCC(C)c1cc(-c2ccc(OC)cc2)c(-c2ccc(OC)cc2)s1` (stereo not drawn) [Example 2, 5-(1-Methylpropyl)-2,3-bis(4-methoxyphenyl)thiophene], the ED50 in experiment [1] (setting [3]) amounted to 29 mg/kg; in experiment [2] (setting [4]), 5.5 mg/kg.

Take `COc1ccc(-c2cc(C3CCCCC3)sc2-c2ccc(OC)cc2)cc1` [Example 3, 5-Cyclohexyl-2,3-bis(4-methoxyphenyl)thiophene]: in experiment [1] (rat, oral gavage, 7 daily doses, at 45 mg/kg), the “percent reduction in paw volume at the indicated dose” value is given as 34%. Besides, the ED50 in experiment [2] (setting [4]) came out at 47 mg/kg.

As for `COc1ccc(-c2cc(C(C)(C)C)sc2-c2ccc(OC)cc2)cc1` [Example 4, 5-(1,1-Dimethylethyl)-2,3-bis(4-methoxyphenyl)thiophene], the figures for the median effective dose (ED50) in experiment [1] (setting [3]) and in experiment [2] (setting [4]) were 36 mg/kg and 1.4 mg/kg, respectively.

Consider `CC(C)Cc1ccc(C(C)C(=O)O)cc1` (stereo not drawn) [Ibuprofen, reference compound], for which the ED50 in experiment [1] (setting [3]) amounted to 100 mg/kg; in experiment [2] (setting [4]), 10 mg/kg.

Take `COc1ccc2c(c1)c(CC(=O)O)c(C)n2C(=O)c1ccc(Cl)cc1` [Indomethacin, reference compound]: the ED50 in experiment [1] (Rattus norvegicus, po) turned out to be 0.3 mg/kg; in experiment [2] (Mus musculus, po) it was 0.35 mg/kg.

In the case of `CCCCC1C(=O)N(c2ccccc2)N(c2ccccc2)C1=O` [Phenylbutazone, reference compound], the figures for the ED50 in experiment [1] (setting [3]) and in experiment [2] (setting [4]) were 10 mg/kg and 80 mg/kg, respectively.
